Measurements published in ChEMBL document CHEMBL5715954, “Silencing c-Myc translation as a therapeutic strategy through targeting PI3Kδ and CK1ε in hematological malignancies” (Blood, 2017).

Key:
Design in all cases: scale not given: the % may be the effect or the level left
[1] = molecular target: T1, Activin receptor type-1 (Homo sapiens) (UniProt Q04771); test: Inhibition of human ALK2 assessed as enzyme activity at 1 uM using casein as substrate preincubated for 20 mins followed by [gamma-33P]-ATP addition and measured after 120 mins by radiometric Hot-SpotSM Kinase assay relative to control
T1 sequence (whole entry): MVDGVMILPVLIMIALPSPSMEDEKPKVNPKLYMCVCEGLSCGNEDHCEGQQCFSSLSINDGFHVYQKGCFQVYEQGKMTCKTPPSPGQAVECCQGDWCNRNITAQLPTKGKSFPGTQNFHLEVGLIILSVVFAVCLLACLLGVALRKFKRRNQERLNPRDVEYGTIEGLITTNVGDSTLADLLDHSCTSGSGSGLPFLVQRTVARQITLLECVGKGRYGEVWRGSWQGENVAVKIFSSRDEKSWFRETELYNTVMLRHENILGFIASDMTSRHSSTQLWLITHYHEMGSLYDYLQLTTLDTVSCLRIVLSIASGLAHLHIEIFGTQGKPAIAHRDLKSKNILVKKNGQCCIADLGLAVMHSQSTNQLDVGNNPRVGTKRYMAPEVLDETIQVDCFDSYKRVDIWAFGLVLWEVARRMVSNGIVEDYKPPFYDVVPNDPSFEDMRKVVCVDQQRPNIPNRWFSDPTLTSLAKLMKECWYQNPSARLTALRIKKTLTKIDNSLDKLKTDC

[2] = molecular target: Calcium/calmodulin-dependent protein kinase kinase 2 (Homo sapiens) (UniProt Q96RR4); test: Inhibition of human CAMKK2 assessed as enzyme activity at 1 uM using myelin basic protein as substrate preincubated for 20 mins followed by [gamma-33P]-ATP addition and measured after 120 mins by radiometric Hot-SpotSM Kinase assay relative to control
[3] = molecular target: Death-associated protein kinase 1 (Homo sapiens) (UniProt P53355); test: Inhibition of human DAPK1 assessed as enzyme activity at 1 uM using KKLNRTLSFAEPG as substrate preincubated for 20 mins followed by [gamma-33P]-ATP addition and measured after 120 mins by radiometric Hot-SpotSM Kinase assay relative to control
[4] = molecular target: T2, Tyrosine-protein kinase JAK3 (Homo sapiens) (UniProt P52333); test: Inhibition of human JAK3 assessed as enzyme activity at 1 uM using GGEEEEYFELVKKKK as substrate preincubated for 20 mins followed by [gamma-33P]-ATP addition and measured after 120 mins by radiometric Hot-SpotSM Kinase assay relative to control
T2 sequence (whole entry): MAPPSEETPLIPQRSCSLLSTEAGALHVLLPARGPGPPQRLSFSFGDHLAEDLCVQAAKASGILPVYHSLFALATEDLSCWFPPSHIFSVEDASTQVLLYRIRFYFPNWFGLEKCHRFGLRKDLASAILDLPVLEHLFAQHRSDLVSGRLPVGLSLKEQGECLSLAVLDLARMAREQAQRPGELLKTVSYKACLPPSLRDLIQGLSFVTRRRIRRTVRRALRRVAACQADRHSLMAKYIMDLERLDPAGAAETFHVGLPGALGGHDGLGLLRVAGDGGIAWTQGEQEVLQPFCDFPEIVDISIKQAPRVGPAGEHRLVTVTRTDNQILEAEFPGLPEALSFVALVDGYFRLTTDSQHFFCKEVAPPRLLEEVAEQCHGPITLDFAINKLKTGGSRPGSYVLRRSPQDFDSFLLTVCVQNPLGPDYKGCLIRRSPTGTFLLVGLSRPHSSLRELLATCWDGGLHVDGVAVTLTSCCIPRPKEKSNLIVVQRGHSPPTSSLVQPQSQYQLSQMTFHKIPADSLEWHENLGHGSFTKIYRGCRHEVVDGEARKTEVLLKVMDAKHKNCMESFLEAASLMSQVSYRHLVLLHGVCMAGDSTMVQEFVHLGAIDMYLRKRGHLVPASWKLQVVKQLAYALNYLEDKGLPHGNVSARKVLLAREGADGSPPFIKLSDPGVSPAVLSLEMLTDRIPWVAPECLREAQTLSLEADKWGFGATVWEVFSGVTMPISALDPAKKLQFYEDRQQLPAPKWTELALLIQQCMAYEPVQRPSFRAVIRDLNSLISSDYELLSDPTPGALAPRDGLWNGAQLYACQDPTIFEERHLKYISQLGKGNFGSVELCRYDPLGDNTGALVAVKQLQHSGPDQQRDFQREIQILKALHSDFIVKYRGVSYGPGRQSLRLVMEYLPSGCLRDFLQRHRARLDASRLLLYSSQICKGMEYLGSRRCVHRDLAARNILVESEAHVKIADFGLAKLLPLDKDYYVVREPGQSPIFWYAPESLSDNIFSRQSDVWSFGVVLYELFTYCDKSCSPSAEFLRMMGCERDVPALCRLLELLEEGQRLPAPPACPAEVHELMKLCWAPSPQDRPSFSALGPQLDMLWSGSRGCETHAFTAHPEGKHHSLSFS

[5] = molecular target: T3, Serine/threonine-protein kinase STK11 (Homo sapiens) (UniProt Q15831); test: Inhibition of human LKB1 assessed as enzyme activity at 1 uM using LSNLYHQGKFLQTFCGSPLYRRR as substrate preincubated for 20 mins followed by [gamma-33P]-ATP addition and measured after 120 mins by radiometric Hot-SpotSM Kinase assay relative to control
T3 sequence (whole entry): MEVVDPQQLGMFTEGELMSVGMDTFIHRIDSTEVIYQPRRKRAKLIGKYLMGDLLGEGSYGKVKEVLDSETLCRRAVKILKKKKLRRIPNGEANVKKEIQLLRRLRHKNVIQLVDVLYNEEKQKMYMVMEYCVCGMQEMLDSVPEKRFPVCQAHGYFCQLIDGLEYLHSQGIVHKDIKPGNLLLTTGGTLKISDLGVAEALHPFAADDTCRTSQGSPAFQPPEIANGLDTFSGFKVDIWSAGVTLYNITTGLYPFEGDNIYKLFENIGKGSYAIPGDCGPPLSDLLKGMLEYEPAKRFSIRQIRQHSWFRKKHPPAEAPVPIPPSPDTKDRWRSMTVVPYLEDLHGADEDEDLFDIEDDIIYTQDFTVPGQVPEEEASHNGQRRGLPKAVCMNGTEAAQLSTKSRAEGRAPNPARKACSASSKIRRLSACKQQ

Death-associated protein kinase 1 (Homo sapiens), sequence (P53355 whole entry, looked up): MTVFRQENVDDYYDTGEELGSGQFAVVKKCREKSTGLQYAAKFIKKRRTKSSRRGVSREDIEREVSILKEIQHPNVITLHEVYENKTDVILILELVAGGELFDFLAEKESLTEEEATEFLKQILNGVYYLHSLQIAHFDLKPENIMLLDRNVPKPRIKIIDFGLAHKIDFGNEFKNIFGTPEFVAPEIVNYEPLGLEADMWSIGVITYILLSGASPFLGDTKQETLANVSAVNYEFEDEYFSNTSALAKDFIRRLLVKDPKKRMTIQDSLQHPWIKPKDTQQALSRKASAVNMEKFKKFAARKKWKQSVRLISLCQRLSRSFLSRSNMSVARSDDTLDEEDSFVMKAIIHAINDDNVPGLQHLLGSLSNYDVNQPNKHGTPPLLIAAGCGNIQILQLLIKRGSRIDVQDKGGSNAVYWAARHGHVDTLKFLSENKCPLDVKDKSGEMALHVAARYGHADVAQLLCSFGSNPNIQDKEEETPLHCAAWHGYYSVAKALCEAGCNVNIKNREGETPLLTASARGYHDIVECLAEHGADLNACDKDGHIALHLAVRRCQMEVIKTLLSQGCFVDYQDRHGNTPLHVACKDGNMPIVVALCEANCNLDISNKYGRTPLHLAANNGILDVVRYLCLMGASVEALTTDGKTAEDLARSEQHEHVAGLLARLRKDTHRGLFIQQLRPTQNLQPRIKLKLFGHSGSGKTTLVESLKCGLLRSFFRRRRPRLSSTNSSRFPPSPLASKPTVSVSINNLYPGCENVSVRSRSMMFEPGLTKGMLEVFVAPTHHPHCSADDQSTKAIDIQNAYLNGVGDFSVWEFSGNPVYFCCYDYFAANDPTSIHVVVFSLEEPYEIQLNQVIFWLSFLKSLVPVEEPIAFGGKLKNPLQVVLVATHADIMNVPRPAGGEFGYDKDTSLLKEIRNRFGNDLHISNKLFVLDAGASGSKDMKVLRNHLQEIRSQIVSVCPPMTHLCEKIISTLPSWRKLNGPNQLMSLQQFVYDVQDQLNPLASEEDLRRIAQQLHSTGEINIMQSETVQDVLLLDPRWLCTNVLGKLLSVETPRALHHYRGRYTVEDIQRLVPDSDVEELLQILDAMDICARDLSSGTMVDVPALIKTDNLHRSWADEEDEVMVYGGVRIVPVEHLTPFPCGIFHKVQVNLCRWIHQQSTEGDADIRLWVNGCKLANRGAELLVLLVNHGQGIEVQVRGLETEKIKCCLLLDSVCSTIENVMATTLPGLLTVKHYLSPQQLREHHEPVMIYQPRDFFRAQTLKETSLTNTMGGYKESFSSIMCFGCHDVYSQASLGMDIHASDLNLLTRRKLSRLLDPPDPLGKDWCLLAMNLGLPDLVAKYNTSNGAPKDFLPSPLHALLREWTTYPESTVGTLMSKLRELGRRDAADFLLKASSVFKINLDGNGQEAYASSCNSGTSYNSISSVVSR
Calcium/calmodulin-dependent protein kinase kinase 2 (Homo sapiens), sequence (Q96RR4 2-588 limits assumed): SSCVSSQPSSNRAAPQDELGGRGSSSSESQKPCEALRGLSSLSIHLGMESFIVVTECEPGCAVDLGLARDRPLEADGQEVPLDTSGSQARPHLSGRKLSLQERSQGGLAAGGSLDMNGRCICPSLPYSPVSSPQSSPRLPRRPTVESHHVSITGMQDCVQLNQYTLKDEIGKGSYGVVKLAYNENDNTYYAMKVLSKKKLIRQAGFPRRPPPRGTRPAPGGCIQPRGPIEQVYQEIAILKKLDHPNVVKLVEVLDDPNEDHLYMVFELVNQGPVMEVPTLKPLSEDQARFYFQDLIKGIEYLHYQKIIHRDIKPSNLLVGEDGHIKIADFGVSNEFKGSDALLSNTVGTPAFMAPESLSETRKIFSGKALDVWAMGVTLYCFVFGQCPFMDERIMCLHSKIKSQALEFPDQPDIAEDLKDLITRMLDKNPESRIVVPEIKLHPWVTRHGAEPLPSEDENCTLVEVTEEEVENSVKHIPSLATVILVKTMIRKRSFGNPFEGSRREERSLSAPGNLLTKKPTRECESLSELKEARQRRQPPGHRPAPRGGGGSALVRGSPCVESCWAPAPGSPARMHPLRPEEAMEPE

| SMILES | Activity [1] | Activity [2] | Activity [3] | Activity [4] | Activity [5] |
| --- | --- | --- | --- | --- | --- |
| CC[C@H](Nc1ncnc2[nH]cnc12)c1nc2cccc(F)c2c(=O)n1-c1ccccc1 | 94% | 106% | 95% | 94.3% | 104% |
| C[C@H](Nc1ncnc2nc[nH]c12)c1cc2cccc(Cl)c2c(=O)n1-c1ccccc1 | 93.6% | 96.6% | 97% | 95.2% | 93% |
| CC(C)Oc1ccc(-c2nn([C@@H](C)c3oc4ccc(F)cc4c(=O)c3-c3cccc(F)c3)c3ncnc(N)c23)cc1F [UMBRALISIB] | 95.5% | 98.5% | 99.7% | 91.2% | 100% |
